As usually defined, the GI50 is the concentration giving 50% growth inhibition.

Where two headings read alike, the source gives them in different places.

The record followed here is patent US10342796B2, “Acrylanilide derivative, preparation method, and applications thereof in pharmacy” (Ancureall Pharmaceutical (Shanghai) Co., Ltd., priority 2015, dated 2019).

Experiment [1] deals with SNU1040 (HER2 V777M positive). The experiment can be described thus: Growth inhibition GI50 in vitro (CCK8/MTT, 72 h). In kind it is cell-based. Particulars: Homo sapiens, read-out: GI50 SNU-1040 (HER2 V777M).
For experiment [2], the system named is SW48 (EGFR G719S positive). The experiment can be described thus: Growth inhibition GI50 in vitro (CCK8/MTT, 72 h). Format: cell-based. Particulars: Homo sapiens. How it is done: PC-9ER is an acquired Erlotinib resistance cell line of PC-9 cells developed by the investor. […] The four cell lines above were cultured with 1×RPMI1640 complete medium (supplement with 10% FBS). Human colon cancer cell line SW48 (EGFR G719S positive, ATCC). was cultured with L15 complete medium (10% FB S).
The suspension cells were collected by centrifugation. The supernatant was discard and the cell pellet was resuspended and counted. Different cell concentrations (5˜10×10^4 cells/mL) were prepared according to the growth cycle of each cell line and then seeded on a 96-well plate (Corning), 100 μL/well. The cells were incubated over night at 37° C., 5% CO2. The compounds were added to the cells on the second day with 2 wells in parallel. The final concentration of organic solvent shall not exceed 1%. The cells were continually incubated for 72 h, and then subjected to MTT assay.
The present compounds and the reference compounds were dissolved with DMSO (Sigma), respectively. […] The storage concentration of compounds was 10 mM and kept at −20° C. They were diluted by 2 times or 10 times with serial dilution before using.
Dojindo CCK8 reagent kit was used as MTT assay. […] FC meter was used as microplate reader.
Adherent cell culture medium was discard and immediately replaced with fresh prepared medium which contains 10% CCK8 reagent (100 μL/well). For the suspension cells, CCK8 was directly added to 10% of the final concentration. The cells were continually incubated for 1˜4 h. When the color of control wells turned to dark yellow, the absorption value was measured at OD450 nm. The cell growth rate was calculated according to the following formula: cell growth rate (%)=100*(T−T0)/(C−T0), T=optical density of drug treatment cell well—optical density of blank control well; T0=optical density of cell well before drug treatment—optical density of blank control well; C=optical density of cell well of solvent control group—optical density of blank control well. […] The experiment was independently repeated 1˜3 times, and subject to biological statistical analysis.
Each compound started at 1000 nM as an initial concentration and was diluted by […] with serial dilution to 0.03 nM.

The mark [3] stands for this setting: Table 16, 1000 nM to 0.03 nM serial dilution.

As to `C=CC(=O)Nc1cc(Nc2cc(Nc3cc(OC)c(Cl)cc3Cl)ncn2)c(OC)cc1N(C)CCN(C)C` [Compound 136, N-(5-(6-(2,4-dichloro-5-methoxyl-phenylamino)-pyrimidin-4-ylamino)-2-((2-dimethylamino-ethyl)-methyl-amino)-4-methoxyl-phenyl)-acrylamide], the GI50 in experiment [1] (setting [3]) worked out at 16.2 nM.
On the same count and under the same terms, in the case of `C=CC(=O)Nc1cc(Nc2nccc(-n3ccc4c(OC)cccc43)n2)c(OC)cc1N(C)CCN(C)C` [Compound 99, N-(5-(4-(4-methoxyl-1H-indol-1-yl)-pyrimidin-2-ylamino)-2-(2-(dimethylamino-ethyl)-methyl-amino)-4-methoxyl-phenyl)-acrylamide] it was 19.5 nM.
`C=CC(=O)Nc1cc(Nc2cc(Nc3cc(F)c(OC)c(Cl)c3)ncn2)c(OC)cc1N(C)CCN(C)C` [Compound 236, N-(5-(6-(3-chloro-5-fluoro-4-methoxyphenylamino)-pyrimidin-4-yl-amino)-2-((2-dimethylamino-ethyl)-methyl-amino)-4-methoxyl-phenyl)-acrylamide]: the GI50 in experiment [1] (setting [3]) was 5.42 nM; in experiment [2] (SW48, Table 15, 1000 nM to 0.03 nM serial dilution, read-out: GI50 SW48 (EGFR G719S)), 4.23 nM.
As for `C=CC(=O)Nc1cc(Nc2nccc(-c3cn(C)c4ccccc34)n2)c(OC)cc1N(C)CCN(C)C` [AZD9291, reference compound], the GI50 in experiment [1] amounted to 156 nM; in experiment [2] (SW48, read-out: GI50 SW48 (EGFR G719S)), 156 nM.
As to `C=CC(=O)Nc1cc(Nc2nccc(-n3ccc4c(OCCOC)cccc43)n2)c(OC)cc1N(C)CCN(C)C` [Compound 205, N-(5-(4-(4-(2-methoxyl-ethoxyl)-1H-indol-1-yl)-pyrimidin-2-ylamino)-2-(2-(dimethylamino-ethyl)-methyl-amino)-4-methoxyl-phenyl)-acrylamide], the GI50 in experiment [1] (setting [3]) amounted to 14.3 nM.
